Results published in patent US20140316005A1, “COMPOSITIONS FOR IMPROVED OXIDATIVE STATUS IN COMPANION ANIMALS” (HILL'S PET NUTRITION, INC., priority 2003, published 2014).
Like-named read-outs stand apart in the source and are kept apart here.

Conditions: for Total gain / Weekly gain / Final wt.: kittens; for Total gain / Weekly gain: 10 weeks post-weaning; for Final wt.: end of 10-week trial
Source text: Dietary methionine was fed to growing kittens at three levels (0.77, 1.14, and 1.50%) to determine the effect of methionine on growth performance and antioxidant activity. Kittens were fed meat based, canned diets for 10 weeks post-weaning.

[1] = Week 5, dietary methionine 0.77 wt %
[2] = Week 5, dietary methionine 1.14 wt %
[3] = Week 5, dietary methionine 1.50 wt %
[4] = Week 10, dietary methionine 0.77 wt %
[5] = Week 10, dietary methionine 1.14 wt %
[6] = Week 10, dietary methionine 1.50 wt %
[7] = week 5, 1.50 wt % dietary methionine vs 0.77 wt %
[8] = week 10, 1.50 wt % dietary methionine vs 0.77 wt %

CSCC[C@H](N)C(=O)O [methionine]
Weekly weight gain, in words (1.14 wt % and 1.50 wt % dietary methionine compared to 0.77 wt %): increased
ORAC (oxygen radical absorptive capacity) [1]: 2521.84
Taurine (whole blood) [1]: 575.63
Vitamin E (serum) [1]: 15.63
ORAC (oxygen radical absorptive capacity) [2]: 2694.51
Taurine (whole blood) [2]: 630.00
Vitamin E (serum) [2]: 19.86
ORAC (oxygen radical absorptive capacity) [3]: 3164.36
Taurine (whole blood) [3]: 783.71
Vitamin E (serum) [3]: 30.19
ORAC (oxygen radical absorptive capacity) [4]: 2972.53
Taurine (whole blood) [4]: 625.75
Vitamin E (serum) [4]: 20.74
ORAC (oxygen radical absorptive capacity) [5]: 2503.38
Taurine (whole blood) [5]: 616.13
Vitamin E (serum) [5]: 24.24
ORAC (oxygen radical absorptive capacity) [6]: 3013.31
Taurine (whole blood) [6]: 784.57
Vitamin E (serum) [6]: 25.13
Total gain (dietary methionine 0.77 wt %): 950.00 g
Weekly gain (dietary methionine 0.77 wt %): 95.00 g
Final wt. (dietary methionine 0.77 wt %): 1518.75 g
Total gain (dietary methionine 1.14 wt %): 1075.00 g
Weekly gain (dietary methionine 1.14 wt %): 107.50 g
Final wt. (dietary methionine 1.14 wt %): 1612.50 g
Total gain (dietary methionine 1.50 wt %): 1221.43 g
Weekly gain (dietary methionine 1.50 wt %): 122.14 g
Final wt. (dietary methionine 1.50 wt %): 1792.86 g
Blood taurine concentrations, in words [7]: greater
Oxygen radical absorptive capacity (ORAC), in words [7]: greater
Vitamin E concentrations, in words [7]: greater
Oxygen radical absorptive capacity, in words (week 10): not increased
Serum vitamin E concentrations, in words [8]: greater
Whole blood taurine concentrations, in words [8]: greater
